Experimental data as given in ChEMBL document CHEMBL3774336, “Identification of spirooxindole and dibenzoxazepine motifs as potent mineralocorticoid receptor antagonists” (Bioorg Med Chem, 2016).

Key:
[1] = target: T1, Glucocorticoid receptor (Homo sapiens) (UniProt P04150); assay: Inhibition of GST-tagged human glucocorticoid receptor LBD domain expressed in insect cells at 10 uM by Gal4-based fluorescence polarization assay
T1 sequence (whole entry): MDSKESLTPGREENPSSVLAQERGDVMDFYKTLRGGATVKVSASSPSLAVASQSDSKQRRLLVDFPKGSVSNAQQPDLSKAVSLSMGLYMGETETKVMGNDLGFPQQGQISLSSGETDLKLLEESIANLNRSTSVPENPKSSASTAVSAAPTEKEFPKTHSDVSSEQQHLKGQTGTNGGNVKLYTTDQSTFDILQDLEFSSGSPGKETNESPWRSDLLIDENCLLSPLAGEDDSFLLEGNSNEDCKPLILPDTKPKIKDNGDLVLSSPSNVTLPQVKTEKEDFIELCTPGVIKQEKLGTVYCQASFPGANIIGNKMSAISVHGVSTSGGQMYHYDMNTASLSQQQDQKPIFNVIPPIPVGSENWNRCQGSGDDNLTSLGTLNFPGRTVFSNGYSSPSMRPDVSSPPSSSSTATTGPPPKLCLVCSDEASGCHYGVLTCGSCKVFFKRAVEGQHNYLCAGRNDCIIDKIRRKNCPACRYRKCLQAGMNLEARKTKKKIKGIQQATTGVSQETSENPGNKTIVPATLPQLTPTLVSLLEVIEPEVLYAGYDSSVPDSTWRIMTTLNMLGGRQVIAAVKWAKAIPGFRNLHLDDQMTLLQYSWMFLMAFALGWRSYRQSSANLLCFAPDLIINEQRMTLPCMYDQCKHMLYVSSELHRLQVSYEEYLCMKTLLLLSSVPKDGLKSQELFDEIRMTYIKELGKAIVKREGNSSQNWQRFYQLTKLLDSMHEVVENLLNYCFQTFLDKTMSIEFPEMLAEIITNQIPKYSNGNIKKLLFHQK

[2] = target: T2, Mineralocorticoid receptor (Homo sapiens, UniProt P08235, C808S)
hERG (KCNH2) = hERG (KCNH2) (Homo sapiens, UniProt Q12809); assay: Inhibition of human ERG (unknown origin) at 10 uM
[3] = target: T3, Progesterone receptor (Homo sapiens) (UniProt P06401); assay: Inhibition of GST-tagged human progesterone receptor LBD domain expressed in insect cells at 10 uM by Gal4-based fluorescence polarization assay
T3 sequence (whole entry): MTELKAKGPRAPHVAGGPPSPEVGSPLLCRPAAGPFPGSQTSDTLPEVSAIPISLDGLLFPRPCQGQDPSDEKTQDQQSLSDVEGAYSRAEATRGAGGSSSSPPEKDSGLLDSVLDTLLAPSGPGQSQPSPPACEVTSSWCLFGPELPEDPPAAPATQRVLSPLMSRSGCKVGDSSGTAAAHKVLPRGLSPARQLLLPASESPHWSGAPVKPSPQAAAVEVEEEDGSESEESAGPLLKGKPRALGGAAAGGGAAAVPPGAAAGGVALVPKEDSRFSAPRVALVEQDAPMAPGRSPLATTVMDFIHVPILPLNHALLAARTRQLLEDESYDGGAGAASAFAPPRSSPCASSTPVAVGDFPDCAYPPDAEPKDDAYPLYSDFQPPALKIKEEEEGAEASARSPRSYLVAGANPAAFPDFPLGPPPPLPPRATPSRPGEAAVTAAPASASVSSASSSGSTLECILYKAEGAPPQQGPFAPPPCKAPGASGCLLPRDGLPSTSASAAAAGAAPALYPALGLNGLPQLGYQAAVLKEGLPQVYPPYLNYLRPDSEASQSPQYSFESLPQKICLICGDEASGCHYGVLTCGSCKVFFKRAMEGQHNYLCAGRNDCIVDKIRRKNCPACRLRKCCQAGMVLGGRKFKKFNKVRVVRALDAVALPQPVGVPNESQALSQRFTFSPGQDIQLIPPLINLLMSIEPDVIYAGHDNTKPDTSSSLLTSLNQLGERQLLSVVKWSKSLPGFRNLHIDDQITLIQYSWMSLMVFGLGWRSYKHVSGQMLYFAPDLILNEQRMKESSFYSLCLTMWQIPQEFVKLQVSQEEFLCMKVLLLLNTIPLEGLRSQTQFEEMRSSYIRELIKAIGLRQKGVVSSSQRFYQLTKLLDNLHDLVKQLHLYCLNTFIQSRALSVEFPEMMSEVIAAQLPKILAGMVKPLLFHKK

[4] = target: T2, Mineralocorticoid receptor; remark: listed apart in the source
[5] = target: Histamine H1 receptor (Homo sapiens) (UniProt P35367); assay: Inhibition of histamine H1 receptor (unknown origin) at 10 uM
[6] = target: T4, Alpha-2A adrenergic receptor (Homo sapiens) (UniProt P08913); assay: Inhibition of adrenergic alpha2A receptor (unknown origin) at 10 uM
T4 sequence (whole entry): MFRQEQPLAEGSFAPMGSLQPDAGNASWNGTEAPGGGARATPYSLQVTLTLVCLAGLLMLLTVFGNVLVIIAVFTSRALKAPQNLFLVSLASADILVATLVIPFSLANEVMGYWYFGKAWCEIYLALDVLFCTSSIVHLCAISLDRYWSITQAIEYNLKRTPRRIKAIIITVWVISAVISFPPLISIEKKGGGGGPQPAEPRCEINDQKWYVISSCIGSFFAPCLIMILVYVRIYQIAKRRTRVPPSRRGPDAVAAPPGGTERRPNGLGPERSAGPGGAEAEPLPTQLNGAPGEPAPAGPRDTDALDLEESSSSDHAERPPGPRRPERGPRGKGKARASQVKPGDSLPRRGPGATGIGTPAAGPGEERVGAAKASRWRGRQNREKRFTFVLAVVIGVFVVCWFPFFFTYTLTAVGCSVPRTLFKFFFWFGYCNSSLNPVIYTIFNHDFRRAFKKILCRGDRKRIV

[7] = target: 5-hydroxytryptamine receptor 2B (Homo sapiens) (UniProt P41595); assay: Inhibition of serotonin 5H2B receptor (unknown origin) at 10 uM
Sequence of 5-hydroxytryptamine receptor 2B (Homo sapiens) (P41595 whole entry): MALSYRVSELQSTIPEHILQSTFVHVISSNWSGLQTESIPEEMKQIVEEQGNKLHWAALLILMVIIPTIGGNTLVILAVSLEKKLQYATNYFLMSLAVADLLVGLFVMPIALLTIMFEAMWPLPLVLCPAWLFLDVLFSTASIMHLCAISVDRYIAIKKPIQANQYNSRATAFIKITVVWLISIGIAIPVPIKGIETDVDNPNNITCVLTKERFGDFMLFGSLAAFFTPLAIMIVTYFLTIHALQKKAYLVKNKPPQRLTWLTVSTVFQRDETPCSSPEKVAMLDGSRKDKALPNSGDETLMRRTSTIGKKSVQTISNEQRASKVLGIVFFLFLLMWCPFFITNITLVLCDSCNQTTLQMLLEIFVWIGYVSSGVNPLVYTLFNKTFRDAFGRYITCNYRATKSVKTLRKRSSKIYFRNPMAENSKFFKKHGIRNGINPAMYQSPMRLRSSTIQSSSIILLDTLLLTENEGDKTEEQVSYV

T2 sequence (P08235 whole entry C808S): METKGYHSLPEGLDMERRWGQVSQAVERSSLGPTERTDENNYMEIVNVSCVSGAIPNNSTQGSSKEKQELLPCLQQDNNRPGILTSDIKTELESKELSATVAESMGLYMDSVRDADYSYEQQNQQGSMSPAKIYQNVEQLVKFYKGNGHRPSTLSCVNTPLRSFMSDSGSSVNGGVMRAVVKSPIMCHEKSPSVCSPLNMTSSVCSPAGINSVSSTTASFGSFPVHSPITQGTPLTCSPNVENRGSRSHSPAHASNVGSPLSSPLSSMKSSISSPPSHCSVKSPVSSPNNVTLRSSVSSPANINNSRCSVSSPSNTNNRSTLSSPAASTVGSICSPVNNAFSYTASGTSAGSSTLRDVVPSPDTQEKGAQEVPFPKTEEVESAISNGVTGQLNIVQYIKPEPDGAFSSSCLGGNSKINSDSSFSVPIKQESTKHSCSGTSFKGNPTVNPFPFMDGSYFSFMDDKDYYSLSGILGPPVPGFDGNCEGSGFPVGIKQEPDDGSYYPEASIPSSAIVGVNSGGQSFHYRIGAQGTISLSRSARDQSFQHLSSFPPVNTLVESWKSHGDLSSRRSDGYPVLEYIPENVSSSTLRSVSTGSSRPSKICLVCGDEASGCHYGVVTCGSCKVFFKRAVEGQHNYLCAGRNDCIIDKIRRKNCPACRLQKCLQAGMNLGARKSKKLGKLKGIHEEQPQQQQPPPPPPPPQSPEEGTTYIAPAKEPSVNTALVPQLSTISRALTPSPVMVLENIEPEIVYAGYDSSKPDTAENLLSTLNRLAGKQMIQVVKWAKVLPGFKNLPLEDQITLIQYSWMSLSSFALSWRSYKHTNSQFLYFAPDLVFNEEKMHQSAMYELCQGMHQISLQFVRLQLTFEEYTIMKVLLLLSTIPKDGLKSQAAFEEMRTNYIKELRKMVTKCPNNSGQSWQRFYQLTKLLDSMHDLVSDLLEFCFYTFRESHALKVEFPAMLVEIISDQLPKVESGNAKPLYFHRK
Sequence of Histamine H1 receptor (Homo sapiens) (P35367 whole entry): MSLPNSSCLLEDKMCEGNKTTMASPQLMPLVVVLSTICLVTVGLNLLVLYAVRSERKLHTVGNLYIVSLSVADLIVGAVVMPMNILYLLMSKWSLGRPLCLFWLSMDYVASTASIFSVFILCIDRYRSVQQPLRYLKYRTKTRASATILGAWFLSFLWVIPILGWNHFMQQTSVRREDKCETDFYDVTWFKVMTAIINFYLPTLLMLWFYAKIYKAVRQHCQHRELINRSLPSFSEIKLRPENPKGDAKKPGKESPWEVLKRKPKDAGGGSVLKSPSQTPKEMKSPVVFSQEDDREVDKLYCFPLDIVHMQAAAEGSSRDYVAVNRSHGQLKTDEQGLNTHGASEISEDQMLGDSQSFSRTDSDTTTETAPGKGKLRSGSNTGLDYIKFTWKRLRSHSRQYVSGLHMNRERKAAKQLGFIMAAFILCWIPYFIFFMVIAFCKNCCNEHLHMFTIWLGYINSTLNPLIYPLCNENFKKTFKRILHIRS
Sequence of hERG (KCNH2) (Q12809 whole entry, the tested form may be a part): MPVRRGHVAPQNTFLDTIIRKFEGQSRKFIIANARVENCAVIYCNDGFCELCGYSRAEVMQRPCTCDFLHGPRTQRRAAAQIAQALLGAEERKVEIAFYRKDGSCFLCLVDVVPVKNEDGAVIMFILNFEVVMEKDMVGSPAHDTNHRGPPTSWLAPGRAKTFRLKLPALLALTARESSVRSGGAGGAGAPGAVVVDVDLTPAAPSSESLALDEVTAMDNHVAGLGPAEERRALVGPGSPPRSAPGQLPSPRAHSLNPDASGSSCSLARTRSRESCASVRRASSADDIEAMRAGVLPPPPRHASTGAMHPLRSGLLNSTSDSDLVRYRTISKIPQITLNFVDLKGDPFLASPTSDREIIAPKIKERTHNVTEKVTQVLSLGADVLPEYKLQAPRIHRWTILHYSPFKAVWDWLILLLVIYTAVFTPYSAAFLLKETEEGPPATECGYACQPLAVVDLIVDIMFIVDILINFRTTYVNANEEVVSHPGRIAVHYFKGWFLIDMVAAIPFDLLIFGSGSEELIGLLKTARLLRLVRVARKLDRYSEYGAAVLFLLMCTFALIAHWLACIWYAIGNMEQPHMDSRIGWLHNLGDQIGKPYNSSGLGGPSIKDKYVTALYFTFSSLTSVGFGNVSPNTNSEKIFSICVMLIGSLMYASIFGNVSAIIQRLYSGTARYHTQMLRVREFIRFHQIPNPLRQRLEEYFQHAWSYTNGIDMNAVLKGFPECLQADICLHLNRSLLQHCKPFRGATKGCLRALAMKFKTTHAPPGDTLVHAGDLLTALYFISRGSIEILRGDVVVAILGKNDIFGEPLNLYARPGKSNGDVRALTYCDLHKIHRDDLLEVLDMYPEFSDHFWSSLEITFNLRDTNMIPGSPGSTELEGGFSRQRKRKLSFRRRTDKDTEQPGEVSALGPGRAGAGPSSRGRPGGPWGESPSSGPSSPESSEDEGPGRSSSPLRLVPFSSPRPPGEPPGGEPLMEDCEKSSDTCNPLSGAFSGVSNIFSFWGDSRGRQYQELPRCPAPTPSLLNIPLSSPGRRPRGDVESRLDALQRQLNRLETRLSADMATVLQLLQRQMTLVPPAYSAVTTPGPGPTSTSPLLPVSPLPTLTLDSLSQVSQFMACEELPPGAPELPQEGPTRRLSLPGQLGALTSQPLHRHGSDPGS

Compound | inhibition [1] [%] | IC50 [2] [nM] | inhibition at 10 µM (hERG (KCNH2)) [%] | inhibition [3] [%] | Ki [4] [nM] | inhibition [5] [%] | inhibition [6] [%] | inhibition [7] [%]
CN1CCC2(CC1)C(=O)Nc1cc(/C=C3\c4ccccc4COc4cc(F)ccc43)ccc12 | < 40 | 19 | 78 | < 40 | 6 | 97 | 100 | 87
O=C1COc2ccc(/C=C3\c4ccccc4COc4cc(F)ccc43)cc2N1 | 92 | 2 | 26 | 98 | 2 | 26 | 59 | 67
